The text below walks through data of US7786097B2, “Tricyclic compounds, compositions and methods” (Pfizer Inc., priority 2007, dated 2010).

Assay [1] relates to IL-6 levels in Human A549 lung epithelial cells. Briefly: IL-1β-stimulated IL-6 in A549 cells. It counts as cell-based. The settings on record: additional results (footnote a). The procedure: IL-6 IC50 and % Inhibition
Human A549 lung epithelial cells (American Type Culture Collection, Rockville, Md.) were cultured in Kaighn's F-12K medium with penicillin-streptomycin (10 U/mL) and 10% heat-inactivated fetal bovine serum (all from Invitrogen, Grand Island, N.Y.). A549 cells were plated at a density of 30,000 cells/well in 96-well plates and incubated overnight at 37° C. and with 5% CO2. The cells were serum-starved by replacing the growth medium with serum-free Kaighn's F-12K medium with penicillin-streptomycin (10 U/mL) and, again, incubating overnight at 37° C. and with 5% CO2. On the third day, the medium was replaced with fresh serum-free medium and the cells were incubated with or without compound (vehicle was DMSO at 0.1% maximum concentration) for approximately 1 hour and then stimulated with 1 ng/mL recombinant human IL-1β (R&D Systems, Minneapolis, Minn.) for 20 hours at 37° C. and with 5% CO2. Cell supernatants were collected for determination of IL-6 levels using MSD (Meso Scale Discovery, Gaithersburg, Md.) 96-well Single Spot plates as per the manufacturer's instructions. Plates were read with an MSD Sector Imager 6000. […] Vehicle was used to define the 0% inhibition control. Percent inhibition for each compound concentration, relative to these controls, was calculated using Excel (Microsoft, Redmond, Wash.). […]

The subject of assay [2] is IL-1β production in human whole blood. Briefly: Ex vivo LPS-stimulated human whole blood, IL-1β. The settings on record: LPS 100 ng/ml, 22 hours, one donor. It counts as cell-based. As to the method: (§1) Venous blood from human donors was collected as 10 ml aliquots in tubes containing sodium heparin (BD Vacutainer from Becton Dickinson and Company, Franklin Lakes, N.Y.). Blood was added to sterile polystyrene round bottom 96-well tissue culture plates (Corning Costar) at 100 μl/well, omitting the outside wells. Media (RPMI Medium 1640 with L-glutamine, Invitrogen Corporation, Carlsbad, Calif.) was added to the blood in 90 μl aliquots for a total volume of 190 μl. Outside wells were filled with 200 μl of media. Blood was placed in a humidified 37° C. incubator with 5% CO2 while compounds were prepared (nearly 60 minutes).
(§2) Compounds were prepared from 10 mM stock solutions in dimethylsulfoxide (DMSO, Sigma-Aldrich). […] Final DMSO and ethanol concentrations in the assay were 0.1% and 1.5%. The samples were gently triturated twice to mix and replaced in the incubator. LPS stock (E. coli serotype 0111:B4, Sigma-Aldrich), stored in aliquots of 100 μg/ml in RPMI at −20° C., was diluted 1/50 in RPMI to make a working stock solution. After 60 minutes of incubation, 10 μl of the prepared LPS working stock was added to the blood to a final concentration of 100 ng/ml, omitting wells to be used as negative control. The samples were again gently triturated and the plates incubated overnight for 22 hours. Following incubation, the blood was centrifuged at 1500×g for 5 minutes and the plasma removed to either freeze at −20° C. or assay for cytokine release.
(§3) IL-1β, IFNγ, IL-6, and TNFα protein levels were measured using Meso Scale assay kits (Meso Scale Discovery, Gaithersburg, Md.). Reagents were allowed to come to room temperature. Meso Scale plates were blocked with 30 μl of human plasma/serum assay diluent with gentle shaking for 60 minutes at room temperature. Plates were washed 3× with wash buffer (PBS, Invitrogen Corporation, with 0.05% Tween-20, Sigma-Aldrich). Calibrators for standard curves were prepared in human plasma/serum assay diluent as a […] serial dilution to achieve final concentrations ranging from 50000 pg/ml to 3.2 pg/ml. Samples and calibrators were added at 20 μl/well, then incubated at room temperature with gentle shaking for 90 minutes. Plates were again washed 3 times with wash buffer. Detection antibody was diluted in human plasma/serum antibody diluent to 1 μg/ml and added to the plate at 20 μl/well. Plates were incubated as before for 60 minutes and washed again. Read Buffer T<4×) was diluted 1:1 with mqH2O to 2 times concentration and 150 μl added to each well. Plates were analyzed on the SECTOR Imager 6000 (Meso Scale Discovery) to generate raw signal values.
(§4) IL-1β, IFN-γ, IL-6, and TNFα sample values were verified to be within the calibrator standard curves. Individual values were compared to positive and negative controls (vehicle treated blood with LPS and vehicle treated blood without LPS, respectively) to generate % inhibition. Triplicate values were averaged for each donor. The values for two donors were averaged (only one donor was used for IL-1β) and graphed using 4-parameter fit curves in the GraFit 5.0.11 application.

Assay [3] concerns Mouse Collagen-Induced Arthritis (mCIA). In words: Therapeutic mouse collagen-induced arthritis (mCIA) model. It counts as in vivo, Male DBA/J mice. The note with it: mice, dosing day 34 through day 49. An excerpt: Mouse Collagen-induced arthritis is a commonly used chronic, preclinical model of rheumatoid arthritis in which joint swelling and bone destruction occur following immunization with type II collagen. Reduction of disease incidence and severity has been shown previously to be predictive of disease-modification and signs and symptoms mitigation, respectively, in a clinical setting.
In the therapeutic mCIA model, induction of disease incidence and severity was synchronized via LPS stimulation. Male DBA/J mice were immunized with 100 ug of bovine type II collagen (bCII) on day 0. All mice received an intraperitoneal injection of 20 μg of LPS on day 28 and disease was allowed to develop through day 34. At day 34, all mice had disease (incidence=100%) with an average severity score of seven. Dosing of compounds was initiated in the therapeutic mode on day 34 and continued through day 49. Different treatments were compared by measuring the decrease in incidence (i.e., resolution of disease) and the decrease in severity of paw swelling over time.

For assay [4], the system named is TNFα production in human whole blood. In words: Ex vivo LPS-stimulated human whole blood, TNFα. It counts as cell-based. The note with it: LPS 100 ng/ml, 22 hours, mean of two donors. As to the method:
as §1, §2, §3, §4

As a reminder, the inhibition is the drop in the measured response relative to a control, in per cent. A high value points to a strong effect.

As for `C[C@]12C=CC(=O)C=C1CC[C@@H]1[C@@H]2[C@@H](O)C[C@@]2(C)[C@H]1CC[C@]2(O)C(=O)CO` [Prednisolone], the “IL-6 % Inhibition” value in assay [1] amounted to 100%. The molecule also returned an inhibition at 0.000457247 µM in assay [2] (0.457247 nM) of 9.65%. The inhibition at 0.00137174 µM in assay [2] (1.371742 nM) was 15.1%; in assay [4] (1.371742 nM) it was 6.61%. For the same molecule, the figures for the inhibition at 0.00411523 µM in assay [2] (4.115226 nM) and in assay [4] (4.115226 nM) were 21% and 5.31%, respectively. For the same molecule, the values for the inhibition at 0.0123457 µM in assay [2] (12.34568 nM) and in assay [4] (12.34568 nM) were 33.6% and 12.9%, respectively. Further, the inhibition at 0.037037 µM is 37.7% in assay [2] (37.03704 nM) and 27.7% in assay [4] (37.03704 nM). The inhibition at 0.111111 µM in assay [2] (111.1111 nM) was 73.2%; in assay [4] (111.1111 nM), 62.4%. Moreover, the inhibition at 0.333333 µM is 92.9% in assay [2] (333.3333 nM) and 89% in assay [4] (333.3333 nM). Further, the figures for the inhibition at 1 µM in assay [2] (1000 nM) and in assay [4] (1000 nM) were 94.9% and 93.9%, respectively. For the same molecule, the “Therapeutic mCIA (ED80 dose)” value in assay [3] was 5.5 mg/kg.
